Reference: patent US20240300945A1, “CLY SERIES COMPOUND, PREPARATION METHOD THEREFOR AND USE THEREOF IN PREPARATION OF DRUGS” (NANJING WELLBEST PHARMACEUTICAL CO., LTD, priority 2021, published 2024)
Marks after values point to notes of the source that are not given here. Blank lines part the entries; values can stand above or below the compound they belong to.

Columns and labels:
rabbit ear acne model [1] = assay: Rabbit ear acne model: macroscopic observation and histological grading; assay type: in vivo, New Zealand rabbits; details: for number of rabbits with acne histological grading 2+: Grade 2; for number of rabbits with acne histological grading 2+ / number of rabbits with acne histological grading — / number of rabbits with acne histological grading 1+ / number of rabbits with acne histological grading 3+: right ear, 10 per group; for number of rabbits with acne histological grading —: Level 0, without acne; for number of rabbits with acne histological grading 1+: Level 1; for number of rabbits with acne histological grading 3+: Level 3
From the text: (1) Preparation method of treatment cream: The excipient matrix components included methyl silicone oil (15%), stearic acid (6%), white vaseline (5%), liquid paraffin (5%), octadecanol (5%), glycerin (20%), alkyl aryl polyglycol ether (1%), fatty alcohol polyoxyethylene ether (1%), […] (1%), ethyl paraben (0.1%), distilled water (about 31-55%), and mixed with appropriate amount of CLY series compounds to form a mixed emulsion. The emulsion matrix used in this embodiment refers to the matrix component after the active ingredient was removed from the emulsion.
(2) Positive therapeutic drug: 0.1% adapalene gel (Trade name: Differin, produced by Laboratoires Galderma, France).
(§1) New Zealand rabbits were, according to weights, randomly divided into the model control group (applied cream matrix), positive treatment group (applied Differin on the skin), CLY-1 external treatment group (0.25% CLY-1 cream on the skin), CLY-2 external treatment group (0.25% CLY-2 cream on the skin), CLY-3 external treatment group (0.25% CLY-3 cream on the skin), CLY-4 external treatment group (0.25% CLY-4 cream on the skin) CLY-8 external treatment group (0.25% CLY-8 cream on the skin), CLY-9 external treatment group (0.25% CLY-9 cream on the skin), CLY-11 external treatment group (0.25% CLY-11 cream on the skin), CLY-19 external treatment group (0.25% CLY-19 cream on the skin), CLY-36 external treatment group (0.25% CLY-36 cream on the skin); CLY-1 intravenous injection group (1 mg/kg·d), CLY-2 intravenous injection group (1 mg/kg·d), CLY-3 intravenous injection group (1 mg/kg·d), CLY-4 intravenous injection group (1 mg/kg·d), CLY-8 intravenous injection group (1 mg/kg·d), CLY-9 intravenous injection group (1 mg/kg·d), CLY-11 intravenous injection group (1 mg/kg·d), CLY-19 intravenous injection group (1 mg/kg·d), and CLY-36 intravenous injection group (1 mg/kg·d), with 10 in each group. Took the inner side of the rabbit's right ear for depilation treatment as the observation area, and the inner side of the left ear of all rabbits as their own negative control, and applied 95% alcohol. The inner side of the right ear of the model group and the treatment group were both coated with 2% coal tar (Alfa Aesar China, which used 95% alcohol to prepare 2% coal tar solution), and evenly applied the sterile cotton swab to the opening of the ear duct on the inner side of the rabbit's ear within the range of about 2 cm×2 cm, once a day, 0.5 mL each time, and wiped the previous application site with warm water for 14 consecutive days to establish the acne micro-pigmentation model. Visually observed the changes of local skin, including ear thickness, hardness, roughness, and whether there was a black angle plug at the hair follicle mouth. 18 hours after the last application, the sample was sacrificed and skin was taken. The skin tissue was taken from the application site by using a 5 mm punch, fixed with 10% formaldehyde, embedded in paraffin, and stained with HE. The histopathological observation and analysis were carried out.
The histological grading criteria of the acne model: 3 grades according to histological grade. […] The tight keratin embolism in the hair follicles causes severe expansion of the hair follicles, obvious hyperplasia of the sebaceous duct epithelium, skin bulges and scars, and some sebaceous glands degenerate “3±”.
(§2) SPSS16 software was used for statistical analysis. The paired t-test was used for the left and right self-contrast, and the t-test was used for the comparison between the groups, P<0.05 was statistically significant.

rabbit ear acne model [2] = assay: Rabbit ear acne model: epidermal thickness, hair follicle area, sebaceous gland diameter; assay type: in vivo, New Zealand rabbits; details: rabbit right ear
From the text: as §1
The histopathological changes were observed under the microscope, and the thickness of five different epidermises on a slice was measured with the Biomias99 image analysis system, and the average value was calculated; Detected the area of the two hair follicles and the diameter of the four sebaceous glands with the same position and the most complete structure in the four sections, calculated their average values, and then subtracted the data of the left and right external auditory canal of the rabbits in each group to obtain the difference in the thickness of the left and right ear epidermis, the difference in the area of the hair follicles and the difference in the diameter of the sebaceous glands.
as §2

[3] = Pharmacokinetic properties of rats (bioavailability); assay type: in vivo; details: rat, po; male SD rats; intravenous 1 mg/kg, intragastric 5 mg/kg; plasma LC/MS/MS
Method: Male SD rats were randomly assigned to each group, 12 rats in each compound group, and then randomly divided into two groups. Six rats were administered intravenously (1 mg/kg), and blood was collected and plasma was separated respectively at 0.0833, 0.25, 0.5, 1, 2, 4, 6, 8, and 24 hours after administration. The other six rats were administered intragastrically (5 mg/kg), and blood was collected and plasma was separated respectively at 0.25, 0.5, 1, 2, 4, 6, 8, and 24 hours after administration. The concentration of each compound in plasma was determined by LC/MS/MS method, and the relevant pharmacokinetic parameters were calculated by using the software Phoenix WinNonlin 6.2.1, the bioavailability in rats was calculated, and the pharmacokinetic properties of each compound were evaluated.

[4] = external use (0.25% CLY cream; positive: Differin)
[5] = intravenous injection 1 mg/kg·d

SMILES: O=C(c1ccc(-n2nnc3cccnc32)cc1)N(c1ncccc1Cl)[C@@H]1CCCN1 [CLY-9]
number of rabbits with acne histological grading 2+ (rabbit ear acne model [1]; [4]): 1
number of rabbits with acne histological grading 2+ (rabbit ear acne model [1]; [5]): 0
number of rabbits with acne histological grading — (rabbit ear acne model [1]; [4]): 5
number of rabbits with acne histological grading — (rabbit ear acne model [1]; [5]): 7
number of rabbits with acne histological grading 1+ (rabbit ear acne model [1]; [4]): 4
number of rabbits with acne histological grading 1+ (rabbit ear acne model [1]; [5]): 3
number of rabbits with acne histological grading 3+ (rabbit ear acne model [1]; [4]): 0
number of rabbits with acne histological grading 3+ (rabbit ear acne model [1]; [5]): 0
epidermal thickness (rabbit ear acne model [2]; [4]): 0.2389 ± 0.0189 mm
hair follicle area (rabbit ear acne model [2]; [4]): 0.2834 ± 0.0981* mm^2
sebaceous gland diameter (rabbit ear acne model [2]; [4]): 0.0715 ± 0.0412 mm
epidermal thickness (rabbit ear acne model [2]; [5]): 0.2126 ± 0.0167 mm
hair follicle area (rabbit ear acne model [2]; [5]): 0.2327 ± 0.0865* mm^2
sebaceous gland diameter (rabbit ear acne model [2]; [5]): 0.0614 ± 0.0396 mm

SMILES: COC1CCC[C@@H](N(C(=O)c2cccc(-c3nnn[nH]3)c2)c2ncccc2Cl)C1 (some centres unmarked) [CLY-17]
bioavailability [3]: 52.5%

SMILES: O=C(c1ccc(-c2cccc(-c3nnn[nH]3)c2)cc1)N(c1ncccc1Cl)[C@@H]1CCNC1 [CLY-18]
bioavailability [3]: 46.9%

SMILES: O=C(c1ccccc1-c1nnn[nH]1)N(c1ncccc1Cl)[C@@H]1CCCNC1 [CLY-21]
bioavailability [3]: 49.6%

SMILES: O=C(c1ccc(-c2ccc(Cl)cc2)cc1)N(c1ncccc1Cl)[C@@H]1CCCNC1 [CLY-26]
bioavailability [3]: 48.5%

SMILES: Nc1ccccc1-c1ccc(C(=O)N(c2ncccc2Cl)[C@@H]2CCNC2)cc1 [CLY-28]
bioavailability [3]: 42.6%

SMILES: Cc1ccccc1-c1ccc(C(=O)N(c2ncccc2Cl)[C@@H]2CCNC2)cc1 [CLY-30]
bioavailability [3]: 46.2%

SMILES: COc1ccc(-c2ccc3cc(C(=O)O)ccc3c2)cc1C12CC3CC(CC(C3)C1)C2 [Positive treatment group, adapalene, reference compound]
number of rabbits with acne histological grading 2+ (rabbit ear acne model [1]; [4]): 3
number of rabbits with acne histological grading — (rabbit ear acne model [1]; [4]): 5
number of rabbits with acne histological grading 1+ (rabbit ear acne model [1]; [4]): 2
number of rabbits with acne histological grading 3+ (rabbit ear acne model [1]; [4]): 0
macroscopic observation of right ear (rabbit ear acne model [1]; after 14 days of coal tar, external treatment): slightly red, with a little desquamation and a small amount of acne
epidermal thickness (rabbit ear acne model [2]; [4]): 0.2389 ± 0.0176 mm
hair follicle area (rabbit ear acne model [2]; [4]): 0.2789 ± 0.0926* mm^2
sebaceous gland diameter (rabbit ear acne model [2]; [4]): 0.0723 ± 0.0387 mm

Next, values leading:

bioavailability [3]: 58.6%
SMILES: CN1CCC[C@@H](N(C(=O)c2ccc(-c3ccccc3)cc2)c2ncccc2Cl)C1 [CLY-32]

bioavailability [3]: 62.2%
SMILES: CCN1CCC[C@@H](N(C(=O)c2ccc(-c3ccc(Cl)cc3)cc2)c2ncccc2Cl)C1 [CLY-35]

bioavailability [3]: 56.5%
SMILES: O=C(c1ccccc1Cl)N(c1ncccc1Cl)[C@@H]1CCCNC1 [CLY-37]

bioavailability [3]: 50.6%
SMILES: CC(C)C(=O)OC(C)n1nnc(-c2c(-c3ccc(C(=O)N(c4ncccc4Cl)C4CCNC4)cc3)cnn2C)n1 [CLY-44, 1-(5-(4-(4-((3-chloropyridin-2-yl) (((R)-pyrrolidin-3-yl)carbamoyl)phenyl)-1-methyl-1H-pyrazol-5-yl)-2H-tetrazol-2-yl)ethyl isobutyrate]
